{
  "source": "patent US5541213A",
  "about": "“Propenoic acid derivatives diazole propenoic acid compounds which have useful pharmaceutical utility” (Eisai Co., Ltd., priority 1993, dated 1996)",
  "key": {"[1]": {"tested_on": "Fisher 344 male rats (glycerol-induced renal trouble model)", "assay": "Activity against glycerol-induced renal trouble model", "type": "in vivo, rat", "conditions": "0.3 mg/5 ml/kg orally 60 minutes before 50% glycerol i.m. 10 ml/kg, blood sampled after about 24 hours", "method": "Fisher 344 male rats aged 8 weeks and weighing 200 to 230 g were kept without water for 18 hours prior to the use. Thereafter, the test compound was orally administered forcedly to the test group of rats in an amount of 0.3 mg/5 ml/kg, while a solvent [2% Tween 80 solution] to the control group of rats in an amount of 5 ml/kg. After 60 minutes from the administration of the test compound or solvent, a 50% solution of glycerol in physiological saline was intramuscularly administered to each rat through both left and right femoral muscles in an amount of 10 ml of kg. After the completion of the intramuscular administration, the rats were watered. After about 24 hours, the rats were etherized and blood was sampled from each rat. The blood samples thus prepared were each centrifuged to collect serum, which was analyzed for urea nitrogen and creatinine."}, "[2]": {"tested_on": "Fisher 344 male rats (cisplatin-induced trouble model)", "assay": "Activity against cisplatin-induced gastric trouble model", "type": "in vivo, rat", "conditions": "cisplatin 6 mg/5 ml/kg s.c., 1 mg/5 ml/kg orally, repeated over four days, blood sampled on the fifth day", "method": "Cisplatin was subcutaneously administered to Fisher 344 male rats aged 7 weeks and weighing 170 to 200 g in an amount of 6 mg/5 ml/kg. Immediately after the administration, the test compound was orally administered forcedly to the test group of rats in an amount of 1 mg/5 ml/kg, while a solvent (2% Tween 80 solution) to the control group of rats in an amount of 5 ml/kg. Six hours after the administration, the administration of the test compound and the solvent to the test group and the control group respectively was conducted in a similar manner to that described above. Thereafter, the same administration was repeated on the next day twice, and on the third and forth days each once. On the fifth day, the rats were etherized and blood was sampled from each rat. The blood samples thus prepared were analyzed for serum urea nitrogen and creatinine."}, "Fisher male rats": {"tested_on": "Fisher male rats", "assay": "Diuretic activity", "type": "in vivo, rat", "conditions": "1 mg/25 ml/kg orally in 0.4% Tween 80 in physiological saline; urine collected for 2 hours", "method": "Fisher male rats aged 8 weeks and weighing 190 to 210 g were fasted for 18 hours prior to the use. The test compound was orally administered forcedly to the test group of rats in a state dispersed in a 0.4% solution of Tween 80 in physiological saline in an amount of 1 mg/25 ml/kg, while a 0.4% solution of Tween 80 in physiological saline to the control group of rats in the same amount as that administered to the test group. Immediately after the administration, the rats were put in individual metabolism cages respectively to collect urine from each rat for 2 hours. The urinary volume of each rat was determined and thereafter the urine was examined for uric acid concentration to calculate the amount of uric acid egested. The control group was composed of six rats, while the test group three rats. The amounts of uric acid excreted from the rats of each group were averaged out to determine the increment of the excretion of uric acid based on the averages."}, "[3]": {"biological_target": "T1, right atrium of Hartley male guinea pigs (heart rate lowering effect of adenosine) (Cavia porcellus, UniProt P47745)", "T1 construct": "the right atrium was extirpated from the heart; from tissue; host or cells: isolated right atrium of Hartley male guinea pigs", "T1 sequence (P47745 1-326)": "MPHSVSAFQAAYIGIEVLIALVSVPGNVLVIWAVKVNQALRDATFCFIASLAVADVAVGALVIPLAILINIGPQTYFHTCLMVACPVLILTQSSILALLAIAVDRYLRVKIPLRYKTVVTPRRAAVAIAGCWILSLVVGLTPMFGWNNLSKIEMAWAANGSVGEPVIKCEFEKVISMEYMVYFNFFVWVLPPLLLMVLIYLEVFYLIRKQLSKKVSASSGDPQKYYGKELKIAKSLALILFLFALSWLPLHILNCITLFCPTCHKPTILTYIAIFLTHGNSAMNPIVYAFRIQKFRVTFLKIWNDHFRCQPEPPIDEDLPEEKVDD", "assay": "Adenosine antagonism (heart rate lowering effect of adenosine in isolated right atrium)", "type": "cell-based", "conditions": "guinea pig right atrium, 37° C., dipyridamole added, 20 minutes with test compound, adenosine added cumulatively; spontaneous heart rate; read-out: pA2 value (adenosine antagonism) (converted)", "method": "Hartley male guinea pigs weighing 250 to 400 g were beaten to death. The heart was immediately extirpated from each guinea pig and put in the Krebs-Heuseleit solution saturated with a gas mixture comprising 95% of oxygen and 5% of carbon dioxide. Thereafter, the right atrium was extirpated from the heart. The samples thus preparer were each vertically suspended in a Magnus tube (capacity: 6 ml) filled with a nutrient liquid at 37° C. and the same gas mixture as that used above was passed through the tube.\nThe change in tension was isometrically determined under a load of about 0.5 g and the spontaneous heart rate was measured and recorded with a cardiotachometer by utilizing the signal of the change as a trigger.\nAfter the stabilization of the sample, 10^-5 mol of dipyridamole was added to each Magnus tube. Thereafter, the test compound was added directly to each of the Magnus tubes of the test group in a state dissolved in DMSO, while a solvent (DMSO) to each of the Magnus tubes of the control group in the same amount as that added to each Magnus tube of the test group. The resulting Magnus tubes was allowed to stand for 20 minutes. […]\nThe EC50 value with respect to the heart rate lowering effect of adenosine was calculated and the adenosine antagonism was represented by pA2 value (-log M)."}},
  "data": [
    {"molecule": "O=C(/C=C/c1c[nH]nc1-c1cccc(F)c1)NC(Cc1ccccn1)c1cc(Cl)ccn1", "note": "(single isomer, unassigned; (+)) [Example 2, (+)-(E)-N-{1-(4-Chloropyridin-2-yl)-2-(pyridin-2-yl)ethyl}-3-{3-(3-fluorophenyl)-1H-pyrazol-4-yl}-2-propenamide]", "values": [
      {"measurement": "serum creatinine", "setting": "[1]; *P < 0.05 vs control (4.76 ± 0.21)", "result": "3.47 ± 0.30", "unit": "mg/dL"},
      {"measurement": "Serum urea nitrogen", "setting": "[1]; *P < 0.05 vs control (185.4 ± 3.2)", "result": "142.4 ± 10.5", "unit": "mg/dL"},
      {"measurement": "serum creatinine", "setting": "[2]; *P < 0.05 vs control (2.15 ± 0.16)", "result": "1.49 ± 0.04", "unit": "mg/dL"},
      {"measurement": "Serum urea nitrogen", "setting": "[2]; *P < 0.05 vs control (93.4 ± 6.5)", "result": "52.9 ± 2.3", "unit": "mg/dL"},
      {"measurement": "amount of uric acid excreted (control group taken as 100%)", "setting": "Fisher male rats", "result": 166, "unit": "%"},
      {"measurement": "urinary volume of the test group (control group taken as 100%)", "setting": "Fisher male rats", "result": 605, "unit": "%"},
      {"measurement": "Kb", "setting": "[3]", "result": 0.0389, "unit": "nM"}
    ]}
  ]
}
